# Measured values published in patent US20060194814A1, “Benzamide compounds” (priority 2003, published 2006).
# Where a name gives a salt, the structure may show the parent alone. Read-outs that look alike come from different tables or passages of the source.
# Assays:
# HMG-CoA reductase mRNA [1] = assay: HMG-CoA reductase mRNA expression by Q-PCR in UT-1 cells; assay type: cell-based, Chinese hamster
# Method: (§1) After treatment, cells were stimulated with 1 mM dbcAMP for 24 hours. At the end of the incubation, total cell RNA was extracted using RNA STAT-60 (Tel-Test Inc, Friendswood, Tex.) according to the manufacturer's instructions. HMG-CoA reductase mRNA was quantified by Q-PCR using the ABI Prism 7700 sequence detection system (Perkin-Elmer/Applied Biosystems, Foster City, Calif.). RT reaction was performed using TaqMan® Reverse Transcription Reagents with 1 g total RNA and random hexamers as primers for each reaction according to the manufacturer's instructions. For quantifying mouse HMG-CoA reductase mRNA with Q-PCR, the primers were designed according to GenBank Accession Number BC 019782 using PE/AB Primer Express software, which is specifically designed for the selection of primers and probes. The forward primer was 5′-[…]-3′ (22 nucleotides; SEQ ID NO:1) and reverse primer was 5′-[…]-3′ (23 nucleotides; SEQ ID NO:2), respectively. The primers were synthesized by Bio-Synthesis Inc. (Lewisville, Tex.). Reactions were performed in a reaction mixture consisting of a 20 l volume solution containing 10 l SYBR® Green PCR Master Mix and 1 l primers mix (5 M each) with 2 l cDNA.
# [2] = test system: MA-10 mouse Leydig tumor cells; assay type: cell-based
# Method: Cell viability at the end of the incubation protocol described above was assessed using the mitochondrial integrity 3-(4,5-dimethylthiazol-2-yl)-2,5-diphenyl tetrazolium bromide (MTT) assay (Trevigen, Gaithersburg, Md.). Briefly, 10 l of the MTT solution were added to the cells in 100 l medium. After an incubation period of 4 hours, 100 l of detergent were added and cells were incubated overnight at 37° C. Formazan blue formation was quantified at 600 nm and 690 nm using the Victor quantitative detection spectrophotometer (EGG-Wallac, Gaithersburg, Md.) and the results expressed as (OD600-OD690).
# HIV-1 IIIB strain [3] = assay: HIV-1 IIIB replication in HeLa indicator cells (AV-Finder-HIV assay), no pre-medication; assay type: cell-based
# [4] = test system: MA-10 mouse Leydig tumor cells; assay: dbcAMP-induced progesterone synthesis in MA-10 cells; assay type: cell-based
# Method: (§2) Culture media were then changed and cells were stimulated with 1 mM dbcAMP and the treatment for 24 to 48 hours. […] The synthesis of 20 —OH progesterone and progesterone in Y1 and MA-10 cell media respectively were measured by RIA (Brown et al., 1992). H295R human adrenal tumor cells were seeded in 48-well plates at 10^5 cells/well and incubated for 24 hours. […] At the end of the incubation time period, cells were treated with 1 mM dbcAMP for 48 hours. Cortisol levels in the media were determined by radioimmunoassay as previously described (Amri et al., 1996).
# HIV-1 IIIB strain [5] = assay: HIV-1 IIIB replication in HeLa cells, 48 hours pre-medication; assay type: cell-based; details: 48 hours pretreatment; all concentrations tested
# P-450scc = target: T1, P-450scc (Mus musculus, UniProt Q9QZ82); assay: 22R-hydroxycholesterol-induced 20á-hydroxyprogesterone synthesis in Y1 cells; assay type: cell-based
# T1 construct: endogenous in cells; host or cells: Y1 mouse adrenal tumor cells
# T1 sequence (Q9QZ82 37-526): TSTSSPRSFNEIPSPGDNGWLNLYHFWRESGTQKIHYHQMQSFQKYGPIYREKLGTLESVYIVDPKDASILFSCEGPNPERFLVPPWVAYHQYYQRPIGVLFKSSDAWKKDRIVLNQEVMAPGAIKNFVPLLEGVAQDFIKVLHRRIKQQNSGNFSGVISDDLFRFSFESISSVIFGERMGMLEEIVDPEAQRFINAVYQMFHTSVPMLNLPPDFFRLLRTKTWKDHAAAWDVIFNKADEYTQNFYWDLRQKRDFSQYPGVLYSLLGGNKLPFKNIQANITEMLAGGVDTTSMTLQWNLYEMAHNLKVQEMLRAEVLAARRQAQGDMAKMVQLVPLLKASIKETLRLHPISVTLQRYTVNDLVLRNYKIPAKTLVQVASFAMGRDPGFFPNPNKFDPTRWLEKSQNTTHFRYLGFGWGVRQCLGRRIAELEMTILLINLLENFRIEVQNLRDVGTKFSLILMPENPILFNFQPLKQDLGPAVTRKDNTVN
# Method: as §2, with “Culture media were then changed and cells were stimulated with 1 mM dbcAMP and the treatment for 24 to 48 hours.” left out
# PKA = assay: dbcAMP-stimulated PKA activity (PepTag assay) in Y1 cells; assay type: cell-based, mouse; parameters: dose or concentration left out as unconfirmed
# Method: Y1 cells were cultured in 6-well plates (2×10^5 cells per well) and treated as described above for steroid biosynthesis. At the end of the incubation, cells were washed twice with PBS and proteins were extracted using an extraction buffer (25 mM tris-HCl, pH 7.4, 0.5 mM EDTA, 0.5 mM EGTA, 10 mM -mercaptoethanol, 0.5 mM PMSF, 1 g/ml leupeptin, and 1 g/ml aprotinin). After centrifugation at 18,500 g for 15 minutes, the supernatants were kept for PKA activity assay. Samples were processed using the PepTag assay for non-radioactive detection of PKA activity following the manufacturer's recommendations (Promega Corporation, Madison, Wis.).
# [6] = test system: multi-drug resistant HIV MDR-769 strain; assay: HIV MDR 769 strain replication in HeLa cells, without pre-medication; assay type: cell-based
# HeLa cells = assay: MTT cytotoxicity assay after the HIV replication protocol; assay type: cell-based, human; details: all concentrations tested, up to 100 μM
# HMG-CoA reductase mRNA [7] = assay: HMG-CoA reductase mRNA expression by Q-PCR in Hepa1-6 cells; assay type: cell-based; details: Hepa1-6 mouse liver hepatoma cells
# Method: as §1
smiles,measurement,setting,value
"CCN(CC)CCOC(=O)c1ccc(N)cc1 [SP01, procaine HCl]",effect on HMG-CoA reductase mRNA expression,HMG-CoA reductase mRNA [1],not significant
same,effect on cell viability (MTT),[2],did not affect MA-10 cell viability
same,"efficacy in reducing HIV-1 IIIB replication compared to AZT, ddI or 3TC",HIV-1 IIIB strain [3]; human cells,"efficacy higher than AZT, ddI or 3TC"
same,efficacy on HIV-1 IIIB viral replication compared to 3TC,"HIV-1 IIIB strain [3]; no pre-medication, concentrations up to 0.1 μM",higher efficacy than the classical antiviral agent 3TC
same,effect on dbcAMP-induced progesterone synthesis,[4],did not affect
same,inhibition of HIV replication,HIV-1 IIIB strain [5],75%
same,effect on 22R-hydroxycholesterol-induced steroidogenesis,P-450scc,did not inhibit
same,effect on dbcAMP-stimulated PKA activity,PKA,no significant effect
same,effect on HIV MDR 769 strain replication,[6],effectively blocked
same,effect on HIV MDR 769 strain replication,[6]; concentrations higher than 1 nM,not effective
same,inhibition of HIV MDR 769 viral replication,[6]; concentrations up to 1 nM,75%
same,cell toxicity (MTT),HeLa cells,devoid of cell toxicity
same,effect on dbcAMP-induced HMG-CoA reductase mRNA levels,HMG-CoA reductase mRNA [7],inhibited
